Data reported in ChEMBL document CHEMBL1909046, “DrugMatrix in vitro pharmacology data”.

What was measured:
Glycine receptor = Glycine receptor (Rattus norvegicus, UniProt P22771+P24524+P07727+P20781); assay type: cell membranes, Wistar, Spinal cord, Membrane; note: in other assays of this panel Not Active means under 50% inhibition at 10 µM
Cathepsin G = biological target: T1, Cathepsin G (Homo sapiens, UniProt P08311); assay type: tissue-based; conditions: neutrophil;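 note: inhibition of Cathepsin G enzyme activity, tested on an AMC-conjugated peptide substrate; in other assays of this panel Not Active means under 50% inhibition at 10 µM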
T1 sequence (P08311 whole entry): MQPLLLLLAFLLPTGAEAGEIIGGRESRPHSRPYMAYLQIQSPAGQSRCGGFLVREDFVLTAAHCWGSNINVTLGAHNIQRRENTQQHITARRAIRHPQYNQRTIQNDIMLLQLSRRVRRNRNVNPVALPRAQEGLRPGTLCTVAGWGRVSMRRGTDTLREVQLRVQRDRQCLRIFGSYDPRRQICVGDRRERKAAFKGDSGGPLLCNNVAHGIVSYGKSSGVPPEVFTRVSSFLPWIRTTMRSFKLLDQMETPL

[1] = biological target: T2, Receptor-type tyrosine-protein phosphatase C (Homo sapiens, UniProt P08575); design: species or system Escherichia coli;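 note: inhibition of CD45 enzyme activity measured using DiFMUP as substrate; in other assays of this panel Not Active means under 50% inhibition at 10 µM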
T2 sequence (P08575 whole entry): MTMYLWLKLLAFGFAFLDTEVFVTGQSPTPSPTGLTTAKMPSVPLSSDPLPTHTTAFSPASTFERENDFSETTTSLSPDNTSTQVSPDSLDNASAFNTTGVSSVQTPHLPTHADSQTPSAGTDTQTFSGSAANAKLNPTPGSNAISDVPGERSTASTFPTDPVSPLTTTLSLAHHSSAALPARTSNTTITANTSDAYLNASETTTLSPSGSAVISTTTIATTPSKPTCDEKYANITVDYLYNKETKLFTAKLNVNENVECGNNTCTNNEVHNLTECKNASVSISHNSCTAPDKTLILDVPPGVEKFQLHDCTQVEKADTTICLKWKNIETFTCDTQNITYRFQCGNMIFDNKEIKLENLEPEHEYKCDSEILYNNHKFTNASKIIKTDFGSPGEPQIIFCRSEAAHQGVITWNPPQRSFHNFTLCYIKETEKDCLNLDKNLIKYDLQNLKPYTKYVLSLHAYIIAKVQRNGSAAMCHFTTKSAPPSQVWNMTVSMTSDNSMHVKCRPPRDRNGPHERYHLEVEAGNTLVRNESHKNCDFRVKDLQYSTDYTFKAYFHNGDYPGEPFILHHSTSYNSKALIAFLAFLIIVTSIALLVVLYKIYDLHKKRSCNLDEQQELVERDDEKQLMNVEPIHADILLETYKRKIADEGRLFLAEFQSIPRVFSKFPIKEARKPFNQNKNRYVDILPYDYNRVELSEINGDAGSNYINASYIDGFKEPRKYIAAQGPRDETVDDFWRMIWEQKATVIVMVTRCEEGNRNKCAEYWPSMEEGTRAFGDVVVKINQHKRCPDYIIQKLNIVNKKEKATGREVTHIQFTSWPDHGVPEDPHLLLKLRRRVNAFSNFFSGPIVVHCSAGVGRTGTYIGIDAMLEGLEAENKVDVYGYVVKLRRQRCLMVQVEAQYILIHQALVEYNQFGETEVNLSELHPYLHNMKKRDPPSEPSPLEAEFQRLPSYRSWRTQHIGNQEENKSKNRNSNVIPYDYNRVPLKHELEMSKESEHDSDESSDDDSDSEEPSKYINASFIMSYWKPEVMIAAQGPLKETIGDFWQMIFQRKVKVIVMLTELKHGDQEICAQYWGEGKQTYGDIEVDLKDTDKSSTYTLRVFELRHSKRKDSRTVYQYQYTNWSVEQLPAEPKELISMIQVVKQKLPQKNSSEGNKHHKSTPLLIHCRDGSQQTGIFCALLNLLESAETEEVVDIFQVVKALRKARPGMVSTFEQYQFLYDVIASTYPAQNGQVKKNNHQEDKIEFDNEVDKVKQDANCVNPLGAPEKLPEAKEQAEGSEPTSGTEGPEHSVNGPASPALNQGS

[2] = biological target: T3, Neuropeptide Y receptor type 2 (Homo sapiens, UniProt P49146); assay type: cell membranes, Membrane; conditions: kan-ts; note: in other assays of this panel Not Active means under 50% inhibition at 10 µM
T3 sequence (P49146 whole entry): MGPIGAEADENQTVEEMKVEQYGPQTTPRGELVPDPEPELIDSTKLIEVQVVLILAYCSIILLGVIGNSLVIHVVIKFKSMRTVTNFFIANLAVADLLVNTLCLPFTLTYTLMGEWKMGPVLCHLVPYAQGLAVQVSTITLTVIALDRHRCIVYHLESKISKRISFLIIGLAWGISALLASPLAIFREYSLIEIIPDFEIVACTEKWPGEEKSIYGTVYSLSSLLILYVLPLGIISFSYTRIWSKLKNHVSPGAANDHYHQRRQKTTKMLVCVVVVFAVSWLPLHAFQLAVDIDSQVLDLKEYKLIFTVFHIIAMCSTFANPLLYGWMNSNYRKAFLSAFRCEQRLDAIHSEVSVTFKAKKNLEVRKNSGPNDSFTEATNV

[3] = biological target: T4, Muscarinic acetylcholine receptor M5 (Homo sapiens, UniProt P08912); assay type: cell membranes, CHO-K1, Membrane; conditions: cho-k1; note: in other assays of this panel Not Active means under 50% inhibition at 10 µM
T4 sequence (P08912 whole entry): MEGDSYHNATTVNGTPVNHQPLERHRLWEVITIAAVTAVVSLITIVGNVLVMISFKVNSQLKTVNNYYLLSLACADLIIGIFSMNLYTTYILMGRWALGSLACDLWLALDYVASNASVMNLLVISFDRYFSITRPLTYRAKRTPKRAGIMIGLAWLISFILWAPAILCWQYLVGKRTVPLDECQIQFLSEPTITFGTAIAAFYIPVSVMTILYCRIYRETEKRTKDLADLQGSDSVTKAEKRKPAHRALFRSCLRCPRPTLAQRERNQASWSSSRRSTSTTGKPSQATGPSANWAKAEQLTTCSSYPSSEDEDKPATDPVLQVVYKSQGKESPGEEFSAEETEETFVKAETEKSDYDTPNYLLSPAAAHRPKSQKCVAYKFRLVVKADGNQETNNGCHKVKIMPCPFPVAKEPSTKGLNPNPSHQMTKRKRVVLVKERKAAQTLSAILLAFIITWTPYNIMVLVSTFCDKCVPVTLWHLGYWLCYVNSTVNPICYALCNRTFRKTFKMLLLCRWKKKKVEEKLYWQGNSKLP

[4] = biological target: Sodium-dependent noradrenaline transporter (Homo sapiens, UniProt P23975); test: DRUGMATRIX: Norepinephrine Transporter radioligand binding (ligand: [125I] RTI-55); assay type: cell membranes, MDCK, Membrane; conditions: mdck; Not Active = under 50% inhibition at 10 µM
[5] = biological target: Platelet-activating factor receptor (Homo sapiens, UniProt P25105); test: biochemical; assay type: tissue-based; conditions: platelet; note: in other assays of this panel Not Active means under 50% inhibition at 10 µM
Sequence of Platelet-activating factor receptor (P25105 whole entry): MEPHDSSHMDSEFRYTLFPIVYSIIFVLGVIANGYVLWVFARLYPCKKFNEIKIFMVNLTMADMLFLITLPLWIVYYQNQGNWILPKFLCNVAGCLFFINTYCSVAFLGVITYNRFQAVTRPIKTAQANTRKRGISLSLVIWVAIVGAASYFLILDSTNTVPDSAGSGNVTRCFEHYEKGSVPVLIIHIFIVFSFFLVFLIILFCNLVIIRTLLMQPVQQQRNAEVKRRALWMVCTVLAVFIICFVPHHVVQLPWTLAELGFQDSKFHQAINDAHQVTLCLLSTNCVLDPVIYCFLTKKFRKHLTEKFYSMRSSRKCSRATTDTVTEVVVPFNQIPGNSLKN

Sequence of Sodium-dependent noradrenaline transporter (P23975 whole entry): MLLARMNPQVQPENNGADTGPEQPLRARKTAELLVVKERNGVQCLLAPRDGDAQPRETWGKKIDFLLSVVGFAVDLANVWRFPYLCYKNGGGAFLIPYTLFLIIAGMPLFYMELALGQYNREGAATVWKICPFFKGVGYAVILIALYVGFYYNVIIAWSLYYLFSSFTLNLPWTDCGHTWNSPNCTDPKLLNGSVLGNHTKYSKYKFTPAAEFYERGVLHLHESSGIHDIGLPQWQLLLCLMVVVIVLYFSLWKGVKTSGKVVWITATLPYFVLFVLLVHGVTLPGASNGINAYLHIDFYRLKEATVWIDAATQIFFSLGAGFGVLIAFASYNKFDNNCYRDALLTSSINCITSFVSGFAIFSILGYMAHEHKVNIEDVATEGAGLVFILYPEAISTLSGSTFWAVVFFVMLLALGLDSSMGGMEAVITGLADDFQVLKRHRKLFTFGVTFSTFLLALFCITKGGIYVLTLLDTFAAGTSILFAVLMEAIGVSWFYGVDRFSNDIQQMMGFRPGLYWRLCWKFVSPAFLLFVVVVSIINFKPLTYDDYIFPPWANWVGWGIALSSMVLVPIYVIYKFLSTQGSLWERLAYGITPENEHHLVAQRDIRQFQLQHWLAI

GOLD SODIUM THIOMALATE
Not Active: IC50 (Glycine receptor) | Ki (Glycine receptor) | IC50 (Cathepsin G) | Ki (Cathepsin G) | IC50 [1] | Ki [1] | IC50 [2] | Ki [2] | IC50 [3] | Ki [3] | IC50 [4] | Ki [4] | IC50 [5] | Ki [5]

CCc1cccc2c3c([nH]c12)C(CC)(CC(=O)O)OCC3 (stereo not given) [ETODOLAC]
Not Active: IC50 (Glycine receptor) | IC50 (Cathepsin G) | IC50 [1] | IC50 [2] | IC50 [3] | IC50 [4] | IC50 [5]

CN(C)[C@@H]1C(O)=C(C(N)=O)C(=O)[C@@]2(O)C(O)=C3C(=O)c4c(O)cccc4[C@@](C)(O)[C@H]3[C@H](O)[C@@H]12 [OXYTETRACYCLINE]
Not Active: IC50 (Glycine receptor) | IC50 (Cathepsin G) | IC50 [1] | IC50 [2] | IC50 [3] | IC50 [4] | IC50 [5]

CCCSc1ccc2nc(NC(=O)OC)[nH]c2c1 [ALBENDAZOLE]
Not Active: IC50 (Glycine receptor) | IC50 (Cathepsin G) | IC50 [1] | IC50 [2] | IC50 [3] | IC50 [4] | IC50 [5]

OXALIPLATIN
Not Active: IC50 (Glycine receptor) | Ki (Glycine receptor) | IC50 (Cathepsin G) | Ki (Cathepsin G) | IC50 [1] | Ki [1] | IC50 [2] | Ki [2] | IC50 [3] | Ki [3] | IC50 [4] | Ki [4] | IC50 [5] | Ki [5]

Oc1cccc2cccnc12 [OXYQUINOLINE]
Not Active: IC50 (Glycine receptor) | IC50 (Cathepsin G) | IC50 [1] | IC50 [2] | IC50 [3] | IC50 [4] | IC50 [5]

Cc1[nH]cnc1CN1CCc2c(c3ccccc3n2C)C1=O [ALOSETRON]
Not Active: IC50 (Glycine receptor) | IC50 (Cathepsin G) | IC50 [1] | IC50 [2] | IC50 [3] | IC50 [4] | IC50 [5]

CCCc1cc(=O)[nH]c(=S)[nH]1 [PROPYLTHIOURACIL]
Not Active: IC50 (Glycine receptor) | IC50 (Cathepsin G) | IC50 [1] | IC50 [2] | IC50 [3] | IC50 [4] | IC50 [5]

CARBOPLATIN
Not Active: IC50 (Glycine receptor) | Ki (Glycine receptor) | IC50 (Cathepsin G) | Ki (Cathepsin G) | IC50 [1] | Ki [1] | IC50 [2] | Ki [2] | IC50 [3] | Ki [3] | IC50 [4] | Ki [4] | IC50 [5] | Ki [5]

CC1(C)S[C@@H]2[C@H](NC(=O)[C@H](NC(=O)N3CCNC3=O)c3ccccc3)C(=O)N2[C@H]1C(=O)O [AZLOCILLIN]
Not Active: IC50 (Glycine receptor) | IC50 (Cathepsin G) | IC50 [1] | IC50 [2] | IC50 [3] | IC50 [4] | IC50 [5]

COc1ccc2cc(CC(=O)O)ccc2c1
Not Active: IC50 (Glycine receptor) | IC50 (Cathepsin G) | IC50 [1] | IC50 [2] | IC50 [3] | IC50 [4] | IC50 [5]

CCOC(=O)OC(C)OC1=C(C(=O)Nc2ccccn2)N(C)S(=O)(=O)c2ccccc21 (stereo not given) [AMPIROXICAM]
Not Active: IC50 (Glycine receptor) | IC50 (Cathepsin G) | IC50 [1] | IC50 [2] | IC50 [3] | IC50 [4] | IC50 [5]

O=P1(NCCCl)OCCCN1CCCl (stereo not given) [IFOSFAMIDE]
Not Active: IC50 (Glycine receptor) | IC50 (Cathepsin G) | IC50 [1] | IC50 [2] | IC50 [3] | IC50 [4] | IC50 [5]

CC(C)NC[C@H](O)COc1cccc2[nH]ccc12
Not Active: IC50 (Glycine receptor) | IC50 (Cathepsin G) | IC50 [1] | IC50 [2] | IC50 [3] | IC50 [4] | IC50 [5]

O=C1NC(=O)C(c2ccccc2)(c2ccccc2)N1 [PHENYTOIN]
Not Active: IC50 (Glycine receptor) | IC50 (Cathepsin G) | IC50 [1] | IC50 [2] | IC50 [3] | IC50 [4] | IC50 [5]

O=C1CCc2cc(OCCCCc3nnnn3C3CCCCC3)ccc2N1 [CILOSTAZOL]
Not Active: IC50 (Glycine receptor) | IC50 (Cathepsin G) | IC50 [1] | IC50 [2] | IC50 [3] | IC50 [4] | IC50 [5]

C=C1CC[C@H](O)C/C1=C/C=C1\CCC[C@]2(C)[C@@H]([C@H](C)/C=C/[C@H](C)C(C)C)CC[C@@H]12 [ERGOCALCIFEROL]
Not Active: IC50 (Glycine receptor) | IC50 (Cathepsin G) | IC50 [1] | IC50 [2] | IC50 [3] | IC50 [4] | IC50 [5]
